Data: patent publication US7666901B2, “Analogs of 17-hydroxywortmannin as PI3K inhibitors” (Wyeth, priority 2004, dated 2010)
In brackets after ≈: the same amount, converted by molar mass.

Legend:
[1] = tested on: LNCaP (human prostate carcinoma); assay: Cell proliferation (MTS) assay, LNCaP; type: cell-based; conditions: Homo sapiens, LNCaP, 72 h, Table 1; three days treatment
Method: (§1) Results of cell proliferation assays for exemplary compounds are shown below in Tables 1 and 2. Cell lines LNCaP (human prostate carcinoma), MDA468 (human breast cancer cell), MDA435 (human breast adenocarcinoma), and DU145 (human prostate carcinoma[…]) were purchased from American Type Culture Collection (ATCC) (Rockville, Md.). Cells were cultured in RPMI Medium 1640 containing 10% fetal bovine serum (FBS) in a 37° C. incubator containing 5% CO2. All cell culture reagents were purchased from Gibco-BRL (Grand Island, N.Y.). Cells were plated in 96-well culture plates at about 3000 cells per well. One day following plating, compounds or vehicle controls (buffer only) were added to cells. Proliferation assays were performed three days post initiation of treatment.
(§2) For a non-radioactive cell proliferation assay, viable cell densities are determined by measuring metabolic conversion (by viable cells) of the dye MTS tatrazolium dye, a cell proliferation assay known by one of skill in the art (MTS assay), a previously established cell proliferation assay. The assay is performed using an assay kit (Promega Corp., Madison, Wis.). The assay plates are incubated for 1-2 hours, and the results are read in a 96-well format plate reader by measuring absorbance at 490 nm. Effect of each compound is calculated as a percentage of control cell growth obtained from vehicle-treated cells grown in the same plate.

[2] = tested on: DU145 (human prostate carcinoma/lymphocytic leukemia); assay: Cell proliferation (MTS) assay, DU145; type: cell-based; conditions: Homo sapiens, DU-145, 72 h, Table 1; three days treatment
Method: as §1, §2

[3] = tested on: MDA435 (human breast adenocarcinoma); assay: Cell proliferation (MTS) assay, MDA435; type: cell-based; conditions: Homo sapiens, MDA435, 72 h, Table 1; three days treatment
Method: as §1, §2

[4] = tested on: MDA468 (human breast cancer cell); assay: Cell proliferation (MTS) assay, MDA468; type: cell-based; conditions: Homo sapiens, 72 h, Table 1; three days treatment
Method: as §1, §2

[5] = biological target: T1, Human TOR (Homo sapiens, UniProt P42345); assay: Human TOR (mTOR) kinase assay, DELFIA format; type: biochemical; conditions: Table 1
T1 construct: FLAG
Method: The PI3K/AKT/TOR pathway is critical for cell proliferation, growth, survival, and angiogensis. Accordingly, compounds of the present invention may also be useful to inhibit TOR activity. Similar in vivo and in vitro assays to those described above with reference to PI3K can be used to determine the minimum concentration of compound sufficient to inhibit TOR. A human TOR assay and a Rat1-IGF1 assay as described in Examples 67 and 68, respectively was performed with some embodiments of the invention. The results of these assays are shown below in Tables 1 and 2.
Human TOR assays (See Toral-Barza, et al. Biochem Biophys. Res. Commun. 2005 Jun. 24; 332(1):304-10) with purified enzyme are performed in 96-well plates by DELFIA format as follows. Enzymes are first diluted in kinase assay buffer (10 mM Hepes (pH 7.4), 50 mM NaCl, 50 mM b-glycerophosphate, 10 mM MnCl2, 0.5 mM DTT, 0.25 mM microcystin LR, and […] BSA). To each well, 12 mL of the diluted enzyme is mixed briefly with 0.5 mL test inhibitor or control vehicle dimethylsulfoxide (DMSO). The kinase reaction is initiated by adding 12.5 mL kinase assay buffer containing ATP and His6-S6K to give a final reaction volume of 25 mL containing 800 ng/mL FLAG-TOR, […] ATP and […] His6-S6K. The reaction plate is incubated for 2 hours (linear at 1-6 hours) at room temperature with gentle shaking and then terminated by adding 25 mL Stop buffer (20 mM Hepes (pH 7.4), 20 mM EDTA, 20 mM EGTA). The DELFIA detection of the phosphorylated (Thr-389) His6-S6K is performed at room temperature using a monoclonal anti-P(T389)-p70S6K antibody (1A5, Cell Signaling) labeled with Europium-N1-ITC (Eu) (10.4 Eu per antibody, PerkinElmer). The DELFIA Assay buffer and Enhancement solution can be purchased from PerkinElmer. 45 mL of the terminated kinase reaction mixture is transferred to a MaxiSorp plate (Nunc) containing 55 mL PBS. The His6-S6K is allowed to attach for 2 hours after which the wells are aspirated and washed once with PBS. 100 mL of DELFIA Assay buffer with 40 ng/mL Eu-P(T389)-S6K antibody is added. The antibody binding is continued for 1 hour with gentle agitation. The wells are then aspirated and washed 4 times with PBS containing 0.05% Tween-20 (PBST). […] of DELFIA Enhancement solution is added to each well and the plates are read in a PerkinElmer Victor model plate reader. Data obtained is used to calculate enzymatic activity and enzyme inhibition by potential inhibitors.

[6] = tested on: T2, PI3K; assay: Fluorescence polarization assay for PI3K; type: biochemical; conditions: Table 1
T2 construct: PI3K FP IC50
Method: This assay is used to determine the IC50 of compounds of the present invention as it identifies inhibitors of PI3 kinase by measuring inhibition.
The assay is run by placing 5 μL of diluted enzyme per well, then 5 μL of diluted compound (or 9.5 μL enzyme then 0.5 μL compound in DMSO) is added and mixed. Then, 10 μL substrate is added to start the reaction. The samples are incubated 30-60 minutes, then the reaction is stopped by adding 20 μL stop/detector mix.
PI3K is diluted with reaction buffer (e.g., 5 μL or 7.5 μL PI3K into 620 μL reaction buffer), and 5 μL of diluted enzyme is used per well. 5 μL reaction buffer or drug diluted in buffer (e.g., 4 μL/100 so final DMSO is 1% in reaction) is added to each. The samples are mixed by pipetting up and down. Alternatively, the enzyme can be diluted to 1215 μL. In this case 9.8 μL is added per well and 0.2 μL compound is added in DMSO.
To prepare 1 mL of substrate solution, 955 μL reaction buffer, 40 μL PIP2, and 2.5 μL ATP are mixed. 10 μL of substrate is added to each well to start the reaction.
Stop/detector mix is prepared by mixing 4 μL Red detector and 1.6 μL or 2.0 μL GST-GRP with 1 mL Stop buffer, which results in 10 nM probe and 70 nM GST-GRP). 20 μL of the stop/detector mix is added to each well to stop the reaction. The plates are read after 30-90 minutes keeping the red probe solutions dark.
For the zero time point, stop/detector mix is added to the enzyme just before adding substrate. For an extra control, stop/detector mix is added to buffer (no enzyme) and substrate or to just buffer (no substrate).
The recommended reaction has 0.06 μL per 20 μL (0.015 μg/20 μL) or 0.01125 μg/15 μL or 0.75 μg/mL.
Plates are read on machines with filters for Tamra. The units are mP with no enzyme controls reading app 190-220 mP units. Fully active enzyme reduces fluorescence polarization down to 70-100 mP after 30 minutes. An active cpd raises the mP values halfway to control or to 120-150 mP units.

Compound	IC50 [1] [µg/mL]	IC50 [2] [µg/mL]	IC50 [3] [µg/mL]	IC50 [4] [µg/mL]	IC50 [5] [nM]	PI3K FP IC50 [6] [µg/mL]	TOR IC50 [5] [µg/mL]
CCN(/C=C1/C(=O)O[C@H](COC)[C@@]2(C)C1=C(O)C(=O)C1=C2[C@H](OC(C)=O)C[C@]2(C)[C@@H](O)CC[C@@H]12)CC [Compound 1, (1E,4S,4aR,5R,6aS,7S,9aR)-1-[(diethylamino)methylene]-7,11-dihydroxy-4-(methoxymethyl)-4a,6a-dimethyl-2,10-dioxo-1,2,4,4a,5,6,6a,7,8,9,9a,10-dodecahydroindeno[4,5-h]isochromen-5-yl acetate]	0.075	2	6	1	–	–	–
COC[C@H]1OC(=O)/C(=C/N2CCCC2)C2=C(O)C(=O)C3=C([C@H](OC(C)=O)C[C@]4(C)[C@@H](O)CC[C@@H]34)[C@]21C [Compound 2, (1E,4S,4aR,5R,6aS,7S,9aR)-7,11-dihydroxy-4-(methoxymethyl)-4a,6a-dimethyl-2,10-dioxo-1-(Pyrrolidin-1-ylmethylene)-1,2,4,4a,5,6,6a,7,8,9,9a,10-dodecahydroindeno[4,5-h]isochromen-5-yl acetate]	0.1	1.4	6	1	> 19900	–	–
CCN(/C=C1/C(=O)O[C@H](COC)[C@@]2(C)C1=C(O)C(=O)C1=C2[C@H](OC(C)=O)C[C@@]2(C)C1CC[C@@H]2OC=O)CC (stereo partly drawn) [Compound 18, (1E,4S,4aR,5R,6aS,7S)-1-[(diethylamino)methylene]-7-(formyloxy)-11-hydroxy-4-(methoxymethyl)-4a,6a-dimethyl-2,10-dioxo-1,2,4,4a,5,6,6a,7,8,9,9a,10-dodecahydroindeno[4,5-h]isochromen-5-yl acetate]	0.11	1.5	6	0.4	4700	–	–
COCC1OC(=O)C(=CN(CCC#N)Cc2ccccc2)C2=C(O)C(=O)C3=C(C(OC(C)=O)CC4(C)C(O)CCC34)C21C (stereo not shown) [Compound 41, Acetic acid 4-{[benzyl-(2-cyano-ethyl)-amino]-methylene}-6,17-dihydroxy-1-methoxymethyl-10,13-dimethyl-3,7-dioxo-1,3,4,7,10,11,12,13,14,15,16,17-dodecahydro-2-oxa-cyclopenta[a]phenanthren-11-yl ester]	1.45 (≈ 2.45 µM)	–	–	5 (≈ 8.46 µM)	728	0.028	–
CCN(C=C1C(=O)OC(COC)C2(C)C1=C(O)C(=O)C1=C2C(OC(C)=O)CC2(C)C(O)CCC12)CCN(CC)CC (stereo not shown) [Compound 42, Acetic acid 4-{[(2-diethylamino-ethyl)-ethyl-amino]-methylene}-6,17-dihydroxy-1-methoxymethyl-10,13-dimethyl-3,7-dioxo-1,3,4,7,10,11,12,13,14,15,16,17-dodecahydro-2-oxa-cyclopenta[a]phenanthren-11-yl ester]	0.75 (≈ 1.3 µM)	–	–	4.1 (≈ 7.13 µM)	1480	0.014	–
COCC1OC(=O)C(=CN(CCN(C)C)Cc2ccccc2)C2=C(O)C(=O)C3=C(C(OC(C)=O)CC4(C)C(O)CCC34)C21C (stereo not shown) [Compound 43, Acetic acid 4-{[benzyl-(2-dimethylamino-ethyl)-amino]-methylene}-6,17-dihydroxy-1-methoxymethyl-10,13-dimethyl-3,7-dioxo-1,3,4,7,10,11,12,13,14,15,16,17-dodecahydro-2-oxa-cyclopenta[a]phenanthren-11-yl ester]	0.42 (≈ 0.69 µM)	–	–	3.4 (≈ 5.59 µM)	4600	0.027	–
CCC(=O)OC1CC2(C)C(O)CCC2C2=C1C1(C)C(=C(O)C2=O)C(=CN(C)CCN(C)C)C(=O)OC1COC (stereo not shown) [Compound 49, Propionic acid 4-{[(2-dimethylamino-ethyl)-methyl-amino]-methylene}-6,17-dihydroxy-1-methoxymethyl-10,13-dimethyl-3,7-dioxo-1,3,4,7,10,11,12,13,14,15,16,17-dodecahydro-2-oxa-cyclopenta[a]phenanthren-11-yl ester]	0.8 (≈ 1.46 µM)	–	–	4.25 (≈ 7.77 µM)	1520	0.044	–
CCCCSC=C1C(=O)OC(COC)C2(C)C1=C(O)C(=O)C1=C2C(OC(C)=O)CC2(C)C(O)CCC12 (stereo not shown) [Compound 52, Acetic acid 4-butylsulfanylmethylene-6,17-dihydroxy-1-methoxymethyl-10,13-dimethyl-3,7-dioxo-1,3,4,7,10,11,12,13,14,15,16,17-dodecahydro-2-oxa-cyclopenta[a]phenanthren-11-yl ester]	0.25 (≈ 0.48 µM)	–	–	3.85 (≈ 7.39 µM)	2500	0.043	–
CCCC(=O)OC1CC2(C)C(O)CCC2C2=C1C1(C)C(=C(O)C2=O)C(=CN(C)CC(C)N(C)C)C(=O)OC1COC (stereo not shown) [Compound 63, Butanoic acid 4-{[(2-dimethylamino-propyl)-methyl-amino]-methylene}-6,17-dihydroxy-1-methoxymethyl-10,13-dimethyl-3,7-dioxo-1,3,4,7,10,11,12,13,14,15,16,17-dodecahydro-2-oxa-cyclopenta[a]phenanthren-11-yl ester]	–	–	–	–	539	–	–
(1E,4S,4aR,5R,6aS,7S,9aR)-1-({4-[2-(2,5-dioxo-2,5-dihydro-1H-pyrrol-1-yl)ethyl]piperazin-1-yl}methylene)-7,11-dihydroxy-4-(methoxymethyl)-4a,6a-dimethyl-2,10-dioxo-1,2,4,4a,5,6,6a,7,8,9,9a,10-dodecahydroindeno[4,5-h]isochromen-5-yl acetate [Compound 65]	–	–	–	–	–	1.55	0.58
